As a reminder, the solubility is the dissolved amount per volume that the medium holds. A lower solubility goes with a poorly soluble substance.

For data set [1], the system named is Pseudomonas aeruginosa (S-2838 strain). Description: Multidrug-resistant Pseudomonas aeruginosa urinary tract infection model test in mice. The conditions noted are these: ICR female mice, 25 mg/kg once by tail vein 2 hours after infection, kidney count on the day after infection. The format is in vivo. As to the method:
The mice used were ICR female SPF mice (5 weeks old: 5 mice per group). The inoculum solution was prepared by suspending a clinical isolate of Pseudomonas aeruginosa (S-2838 strain) cultured overnight at 37° C. on a Mueller-Hinton agar plate in sterile saline. The infection was induced by inoculating 0.2 mL (about 10^3 CFU/mouse) of the inoculum solution into the urethra of each mouse. The test compound was dissolved in sterile saline and given once by tail vein administration 2 hours after infection. The count of viable cells in the kidney on the day after infection was recorded and the mean value was calculated.

The nature of data set [2]: Stability in 100 mmol/L tris-hydrochloric acid buffer (pH 7.4). The class given is physicochemical. The conditions noted are these: compared to Example 1.
The nature of data set [3]: Solubility test (visual dissolution in physiological saline; saturated solubility). The format is physicochemical. The following applies: saline or isotonic, thermodynamic from solid, 1.2 mg taken, dissolution confirmed visually. On the procedure:
The compounds of Examples 1 and 2 were taken in an amount of 1.2 mg, physiological saline was added during stirring until dissolution could be confirmed visually, and the solubility was calculated.

For `CNC(=O)[C@@](C)(C(=O)NO)N(C)C(=O)c1ccc(C#Cc2ccc([C@H](O)COP(=O)(O)O)cc2)cc1` [Comparative Example 1, (S)-2-hydroxy-2-(4-((4-(((S)-1-(hydroxyamino)-2-methyl-3-(methylamino)-1,3-dioxopropan-2-yl)(methyl)carbamoyl)phenyl)ethynyl)phenyl)ethyl phosphate], in data set [1], the “decrease of count of viable cells in the kidney compared with control group” value is listed as below 4 log CFU/kidney.
For the compound `CNC(=O)[C@@](C)(C(=O)NOC(=O)CCC(=O)O)N(C)C(=O)c1ccc(C#Cc2ccc([C@H](O)CO)cc2)cc1` [Comparative Example 2, 4-(((S)-2-(4-((4-((S)-1,2-dihydroxyethyl)phenyl)ethynyl)-N-methylbenzamide)-2-methy 1-3-(methylamino)-3-oxopropanamide)oxy)-4-oxobutanoic acid], the “stability in buffer (decomposition to compound A)” value in data set [2] is listed as “easily decomposed”.
Regarding `CNC(=O)[C@@](C)(C(=O)NOP(=O)(O)O)N(C)C(=O)c1ccc(C#Cc2ccc([C@H](O)CO)cc2)cc1` [Example 1, (((S)-2-(4-((4-((S)-1,2-dihydroxyethyl)phenyl)ethynyl)-N-methylbenzamide)-2-methyl-3-(methylamino)-3-oxopropanamide)oxy)phosphonic acid], the solubility in data set [3] was above 100 mg/mL.
On the same count and under the same terms, in the case of `CNC(=O)[C@@](C)(C(=O)NOCOP(=O)(O)O)N(C)C(=O)c1ccc(C#Cc2ccc([C@H](O)CO)cc2)cc1` [Example 2, (((S)-2-(4-((4-((S)-1,2-dihydroxyethyl)phenyl)ethynyl)-N-methylbenzamide)-2-methyl-3-(methylamino)-3-oxopropanamide)oxy)methyl dihydrogen phosphate] it was above 100 mg/mL.

For the origin of these results see patent US20200062789A1, “HYDROXAMIC ACID PRODRUG COMPOUND OR SALT THEREOF, LYOPHILIZED FORMULATION, LPXC INHIBITOR, AND ANTIBACTERIAL AGENT” (FUJIFILM Toyama Chemical Co., Ltd., priority 2017, published 2020).
